This passage reports EC50 results from BindingDB's records for doi:10.1021/jm5002919 (Takeda Pharmaceutical, 2014).

SMILES strings stand for the structures. pEC50: −log10 of the molar value.

The target in the assay is G-protein coupled receptor 52 (Homo sapiens, UniProt Q9Y2T5). Kind of assay: Agonist activity at human GPR52 expressed in CHO cells assessed as cAMP production after 30 mins by Alphascreen assay.
Sequence of G-protein coupled receptor 52 (Q9Y2T5 whole entry): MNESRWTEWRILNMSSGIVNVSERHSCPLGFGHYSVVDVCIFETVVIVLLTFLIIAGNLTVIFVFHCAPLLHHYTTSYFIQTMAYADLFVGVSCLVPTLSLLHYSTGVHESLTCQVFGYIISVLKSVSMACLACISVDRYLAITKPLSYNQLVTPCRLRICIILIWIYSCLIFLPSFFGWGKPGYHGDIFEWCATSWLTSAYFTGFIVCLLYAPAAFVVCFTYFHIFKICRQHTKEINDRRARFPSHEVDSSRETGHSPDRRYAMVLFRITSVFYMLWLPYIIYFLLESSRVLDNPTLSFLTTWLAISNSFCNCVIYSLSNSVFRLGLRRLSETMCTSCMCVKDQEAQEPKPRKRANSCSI

With `COc1ccc(-c2ccnc(NCCc3ccc(OC)c(OC)c3C)n2)cc1`, the negative-log EC50 (pEC50) is < 5.00.
